In patent publication US4983614A, “Benzhydryloxyethylpiperidine derivatives, process for their preparation and pharmaceutical compositions, in which they are present” (priority 1986, dated 1991):
Counter-ions that a name gives are not always drawn. Like-named read-outs stand apart in the source and are kept apart here.

How the values were obtained:
[1] = test system: pain syndrome caused by phenylbenzoquinone (PBQ); test: Peripheral analgesic activity (phenylbenzoquinone-induced abdominal twisting); assay type: in vivo; settings: Mus musculus, ip
Experimental: F--Peripheral analgesic activity
A peritoneal pain is caused in mice by the intraperitoneal injection of phenylbenzoquinone (PBQ). The test assesses the decrease in the pain syndrome, characterized by an abdominal twisting movement, which is caused by injecting the test product thirty minutes before the administration of PBQ.
The 50% effective dose is calculated from the percentage decrease in the pain syndrome relative to the control animals.

[2] = test system: lethal dose of histamine (histaminic shock); test: Antihistaminic activity (protection from a lethal dose of histamine, histaminic shock); assay type: in vivo; settings: Cavia porcellus, po; guinea-pig, p.o. by position of the head; histamine 1 mg/kg i.v.
Experimental: K--Antihistaminic activity
This test assesses the dose which protects fifty per cent of guinea-pigs from a lethal dose of histamine.
The product is administered thirty minutes before the intravenous injection of histamine hydrochloride (1 mg/kg).
The 50% effective dose is calculated from the results obtained.

[3] = test system: histamine-induced bronchospasm; test: Bronchospasm by inhalation of a histamine solution; assay type: in vivo; settings: Cavia porcellus, guinea-pig
Experimental: J--Bronchospasm by inhalation of a histamine solution
Guinea-pigs are placed in a closed chamber into which histamine is introduced as an aerosol, and only those which show very distinct signs of asphyxia within four minutes are selected.
The substance to be studied is administered to groups of guinea-pigs thirty minutes before a further period in the chamber in order to check the resistance to histamine. A guinea-pig is considered to be protected if it resists the histamine aerosol for ten minutes without showing signs of asphyxia.
A 50% effective dose is calculated from the results obtained.

[4] = Determination of the 50% lethal dose (LD50) in mice; settings: mouse, in vivo
Experimental: A. Determination of the 50% lethal dose (LD50) in mice
The derivatives studied were administered intraperitoneally and orally to groups made up of five male mice and five female mice, at a rate of 0.1 ml per ten grams of body weight.

[5] = test system: contractions induced by histamine hydrochloride in isolated guinea-pig ileum; test: Study on an isolated organ (guinea-pig ileum), antagonism of histamine contractions; settings: 35° C., Tyrode's solution
Experimental: I--Study on an isolated organ (guinea-pig ileum)
This test assesses antagonism towards the contractions induced by histamine hydrochloride in isolated guinea-pig ileum kept at 35° C. in Tyrode's solution.

anaphylactic shock = test: Test for assessing the dose which protects 50% of guinea-pigs from anaphylactic shock; assay type: in vivo; settings: Cavia porcellus, po; guinea-pig, p.o., 45 min before horse serum i.v.; read-out: ED50 protecting 50% of guinea-pigs from anaphylactic shock
Experimental: L--Test for assessing the dose which protects 50% of guinea-pigs from anaphylactic shock
This test was carried out according to the following protocol:
Intraperitoneal administration to guinea-pigs of 2 ml of 20% horse serum in physiological solution for three days: D1, D3 and D5.
Trigger action: on D15, oral administration of the test product 45 minutes before the intravenous injection of 0.5 ml of pure horse serum.

rats = test: Determination of the minimal lethal dose (MLD) in rats; assay type: in vivo, rat; settings: male rats, doses 75 and 150 mg/kg
Experimental: B. Determination of the minimal lethal dose (MLD) in rats
The derivatives studied were administered intraperitoneally to two groups made up of 5 male rats.
The following doses were used: 75 and 150 mg/kg.

motor activity of mice = test: Study of the spontaneous motility (motor activity, photoelectric actimeter); assay type: in vivo, mouse; settings: i.p., comparative test, the number is the dose of the effect
Experimental: A--Study of the spontaneous motility
The motor activity of mice was determined with the aid of a Boissier and Simon photoelectric actimeter.
The mice are placed in groups of five in a box closed with a lid, through which two perpendicular light rays pass; the mice cut off these rays when they move.
These movements are measured by a counter, which is read after thirty minutes and one hour.

[6] = test system: muscle-relaxing action in mice; test: Muscle-relaxing action (traction test); assay type: in vivo; settings: Mus musculus, ip, comparative test
Description: D--Muscle-relaxing action (traction test)
This test assesses the presence or absence of redressments in a mouse brought up to a horizontal wire with its front paws.
The number of mice which are unable to grip the wire with one of their back paws within five seconds is noted.
(§1) A 50% effective dose can be calculated from the results obtained.

[7] = test system: exploration behavior of mice; test: Exploration behavior (automated hole-board); assay type: in vivo; settings: Mus musculus, ip, comparative test
Description: Thirty minutes after the intraperitoneal administration of the derivatives according to the invention, each mouse is placed on an automated hole-board for five minutes and the number of holes explored is noted every minute.
as §1

[8] = test system: sleep induced by pentobarbital; test: Interaction with pentobarbital; assay type: in vivo; settings: Mus musculus, ip, read-out: Interaction with pentobarbital ED50
Description: E--Interaction with pentobarbital
as §1

[9] = read-out: Peripheral analgesic activity (mouse) (ED50)
[10] = ip, i.p., first value under bronchospasm, read-out: Bronchospasm (guinea-pig) (ED50), i.p.
[11] = po, second value under bronchospasm, p.o. by position, read-out: Bronchospasm (guinea-pig) (ED50), second value

Row | SMILES | ED50 [1, 9] | ED50 [2] | ED50 [3, 10] | ED50 [3, 11] | LD50 ([4]; ip, read-out: LD50 (i.p.)) | "In vitro" test (isolated ileum) (ED50) [5] | ED50 (anaphylactic shock) | LD50 ([4]; po, read-out: LD50 (p.o.)) | MLD (i.p.) (rats) | ED50 ([1]; mice, i.p., comparative test, read-out: Peripheral analgesic activity ED50) | Motor activity, significant decrease at (motor activity of mice) | ED50 [6] | ED50 [7] | ED50 [8]
1 | CCOC(=O)C=C1CCN(CCOC(c2ccccc2)c2ccccc2)CC1 [Example 2, ethyl 1-(benzhydryloxyethyl)piperidin-4-ylideneacetate] | 1.9 mg/kg | 0.25 mg/kg | 0.65 mg/kg | 0.21 mg/kg | 300 mg/kg | > 10 µg | – | – | – | – | – | – | – | –
2 | CCOC(=O)C1CCN(CCOC(c2ccccc2)c2ccccc2)CC1 [Example 4, fumarate of 4-carbethoxy-1-benzhydryloxyethylpiperidine] | – | 0.334 mg/kg | 0.46 mg/kg | 0.49 mg/kg | 456 mg/kg | 5 µg | – | – | – | – | – | – | – | –
3 | CCOC(=O)CC1CCN(CCOC(c2ccccc2)c2ccccc2)CC1 [Example 3, maleate of ethyl 1-(benzhydryloxyethyl)piperidino-4-acetate] | 1.9 mg/kg | 0.061 mg/kg | 0.097 mg/kg | 0.223 mg/kg | 160 mg/kg | 8.0 µg | 0.829 mg/kg | 585 mg/kg | 75 mg/kg | – | – | – | – | –
4 | CC(C)(C)c1ccc(C(O)CCCN2CCC(C(O)(c3ccccc3)c3ccccc3)CC2)cc1 (stereo not shown) [Terfenadine] | – | – | – | – | – | – | – | – | – | 3.1 mg/kg | 25 mg/kg | 31 mg/kg | 37 mg/kg | 25 mg/kg
